Test results as given in patent US7550599B2, “Water compatible sterically hindered alkoxyamines and hydroxy substituted alkoxyamines” (Ciba Specialty Chemicals Corporation, priority 2003, dated 2009).

Legend:
[1] = Ink jet media light fastness, cyan, Example 31; conditions: 100% print density; office fluorescent lighting; 650-700 mg/m2
Procedure: (§1) A resin-coated paper impregnated with inorganic adsorbent particles (Konica QP Photoglossy ink jet paper, Konica Corp.) is purchased. On the ink-receiving layer, a 0.8 wt % methanol solution of the instant compounds is applied in an amount to achieve 650-700 mg/m^2, unless otherwise stated. The paper is allowed to dry under ambient temperature and pressure for 24 hours. Separately, test patterns (cyan) are printed on the treated sheets using a Hewlett Packard DeskJet 970 Cxi printer at 100% print density. The obtained prints are left to dry at ambient temperature and pressure for 24 hours. Color densities and CIEL*a*b coordinates before and after exposure are measured using X-Rite 938 Spectrodensitometer. Exposures are carried out using normal office fluorescent lighting.

[2] = Ink jet media light fastness, magenta, Example 32; conditions: 100% print density; office fluorescent lighting; 650-700 mg/m2
Procedure: as §1, with “(magenta)” for “(cyan)”

[3] = Ink jet media light fastness, cyan, Example 34; conditions: 50% print density; office fluorescent lighting; 650-700 mg/m2
Procedure: as §1, with “50%” for “100%”

[4] = Solubility in 50% butyl carbitol / 50% water; type: physicochemical; conditions: 50% butyl carbitol / 50% water by weight; stirred 30 minutes
Procedure: (§2) The solubility of the instant compounds is evaluated in polar solvent systems. A solution of 50% butyl carbitol by weight and 50% water by weight is prepared. The instant compounds are added to this solution, stirred for 30 minutes, and sampled for analysis. Samples containing bis(1-octyloxy-2,2,6,6-tetramethylpiperidin-4-yl)sebacate and 4-hydroxy-1-(2-hydroxy-2-methylpropoxy)-2,2,6,6-tetramethylpiperidine are filtered to remove any undissolved residue and all samples are analyzed by high pressure liquid chromatography or gas chromatography.

[5] = Solubility in 50% butyl cellusolve / 50% water; type: physicochemical; conditions: 50% butyl cellusolve / 50% water by weight; stirred 30 minutes
Procedure: as §2, with “cellusolve” for “carbitol”, “solution” for “solution,”

[6] = Solubility in 25% butyl cellusolve / 75% water; type: physicochemical; conditions: 25% butyl cellusolve / 75% water by weight; stirred 30 minutes
Procedure: as §2, with “of 25%” for “of 50%”, “butyl cellusolve” for “butyl carbitol”, “and 75%” for “and 50%”, “containing bis[…]” for “containing bis(1-octyloxy-2,2,6,6-tetramethylpiperidin-4-yl)sebacate”

[7] = Solubility in water; type: physicochemical; conditions: stirred 30 minutes
Procedure: as §2, with “systems.” for “systems. A solution of 50% butyl carbitol by weight and 50% water by weight is prepared.”, “water,” for “this solution,”

[8] = Compatibility (clarity) in water borne urethane/acrylic copolymer coating, Example 101; type: physicochemical; conditions: 2% by weight stabilizer; haziness = incompatibility
Procedure: Formulation Reference: NeoResins, Inc., Formulation WB-2010, Technical Brochure, August, 2000.
The following components are mixed together under good agitation:
This solution is added to a 4 ounce clear glass jar containing 72.85 parts of NeoPac R-9699 under vigorous agitation and agitated for 10 minutes. Optionally, a defoamer, like Dehydran 1620 (Henkel), and a flash rusting agent, like Heiscore XAB (Cas Chem), are added. The lid is placed securely on the jar. The solidified coatings are visually observed for clarity after solidification. The development of opacity or haziness is indicative of an incompatibility between the hindered amine stabilizer and the formulated coating.

Row | Solubility (% by weight) [4] | Solubility (% by weight) [5] | Solubility (% by weight) [6] | Solubility (% by weight) [7] | Solidified coating in jar, clarity, 0 days [8] | Solidified coating in jar, clarity, 1 days [8] | Solidified coating in jar, clarity, 19 days [8] | SMILES | other results
1 |  |  |  |  |  |  |  | CC(C)(O)CON1C(C)(C)CC(NCCO)CC1(C)C [Example 1] | DE for cyan after 4 weeks [1]: 4.21; DE for magenta after 4 weeks [2]: 20.23; DE for cyan after 4 weeks [3]: 5.29
2 | ≧20 % by weight | ≧20 % by weight | ≧18 % by weight | ≧8 % by weight |  |  |  | CC(C)(O)CON1C(C)(C)CC(NCC(=O)[O-])CC1(C)C.[K+] [Example 10] | 
3 |  |  |  |  | clear | clear | clear | CCCCN(c1nc(Nc2ccc(Cl)c(C(=O)O)c2)nc(N(CCCC)C2CC(C)(C)N(OC3CCCCC3)C(C)(C)C2)n1)C1CC(C)(C)N(OC2CCCCC2)C(C)(C)C1 [G] | 
4 | 0.2 % by weight | 0.7 % by weight | <0.1 % by weight | <0.1 % by weight |  |  |  | CCCCCCCCON1C(C)(C)CC(OC(=O)CCCCCCCCC(=O)OC2CC(C)(C)N(OCCCCCCCC)C(C)(C)C2)CC1(C)C [HALS A, bis(1-octyloxy-2,2,6,6-tetramethylpiperidin-4-yl) sebacate, reference compound] | 
5 | 13.4 % by weight | 15.5 % by weight | 13.6 % by weight | 1.4 % by weight |  |  |  | CC(C)(O)CON1C(C)(C)CC(O)CC1(C)C [HALS B, 4-hydroxy-1-(2-hydroxy-2-methylpropoxy)-2,2,6,6-tetramethylpiperidine, reference compound] | 
6 |  |  |  |  | clear | clear | clear | CCCCN(c1nc(Nc2ccc(S(=O)(=O)O)cc2)nc(N(CCCC)C2CC(C)(C)N(OC3CCCCC3)C(C)(C)C2)n1)C1CC(C)(C)N(OC2CCCCC2)C(C)(C)C1.Cl [H] | 
7 |  |  |  |  | clear | clear | clear | CC(=O)O.CCCCN(c1nc(NCCNCCNCCN)nc(N(CCCC)C2CC(C)(C)N(OC3CCCCC3)C(C)(C)C2)n1)C1CC(C)(C)N(OC2CCCCC2)C(C)(C)C1 [I] | 
8 |  |  |  |  | clear | clear | clear | CCCCN(c1nc(NCCN2CCNCC2)nc(N(CCCC)C2CC(C)(C)N(OC3CCCCC3)C(C)(C)C2)n1)C1CC(C)(C)N(OC2CCCCC2)C(C)(C)C1.Cl [J] | 
9 |  |  |  |  | clear | clear | clear | CON1C(C)(C)CC(NCCOCCOCCNC2CC(C)(C)N(OC)C(C)(C)C2)CC1(C)C [L] | 
